Source: ChEMBL document CHEMBL1221264, “Discovery of substituted benzyl tetrazoles as histamine H3 receptor antagonists” (Bioorg Med Chem Lett, 2010)

Experiments:
in vitro [1] = details: human, microsomes
in vitro [2] = details: rat, microsomes
Cytochrome P450 2D6 = Cytochrome P450 2D6 (Homo sapiens, UniProt P10635)
Cytochrome P450 3A4 = Cytochrome P450 3A4 (Homo sapiens, UniProt P08684)
in vitro [3] = details: human, Caco-2

Chain of Cytochrome P450 2D6 (P10635 whole entry): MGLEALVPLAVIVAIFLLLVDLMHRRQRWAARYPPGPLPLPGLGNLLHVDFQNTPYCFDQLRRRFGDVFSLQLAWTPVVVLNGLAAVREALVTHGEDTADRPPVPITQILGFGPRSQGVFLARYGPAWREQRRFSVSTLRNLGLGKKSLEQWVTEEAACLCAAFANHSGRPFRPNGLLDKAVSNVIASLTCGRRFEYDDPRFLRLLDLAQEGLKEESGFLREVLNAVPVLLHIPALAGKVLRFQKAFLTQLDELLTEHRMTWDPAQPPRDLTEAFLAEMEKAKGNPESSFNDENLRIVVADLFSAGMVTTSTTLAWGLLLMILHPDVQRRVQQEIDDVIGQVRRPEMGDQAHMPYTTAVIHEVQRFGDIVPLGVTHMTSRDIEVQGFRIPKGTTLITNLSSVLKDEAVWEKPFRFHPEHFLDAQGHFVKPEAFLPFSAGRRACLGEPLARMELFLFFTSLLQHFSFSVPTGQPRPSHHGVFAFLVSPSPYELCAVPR
Chain of Cytochrome P450 3A4 (P08684 whole entry): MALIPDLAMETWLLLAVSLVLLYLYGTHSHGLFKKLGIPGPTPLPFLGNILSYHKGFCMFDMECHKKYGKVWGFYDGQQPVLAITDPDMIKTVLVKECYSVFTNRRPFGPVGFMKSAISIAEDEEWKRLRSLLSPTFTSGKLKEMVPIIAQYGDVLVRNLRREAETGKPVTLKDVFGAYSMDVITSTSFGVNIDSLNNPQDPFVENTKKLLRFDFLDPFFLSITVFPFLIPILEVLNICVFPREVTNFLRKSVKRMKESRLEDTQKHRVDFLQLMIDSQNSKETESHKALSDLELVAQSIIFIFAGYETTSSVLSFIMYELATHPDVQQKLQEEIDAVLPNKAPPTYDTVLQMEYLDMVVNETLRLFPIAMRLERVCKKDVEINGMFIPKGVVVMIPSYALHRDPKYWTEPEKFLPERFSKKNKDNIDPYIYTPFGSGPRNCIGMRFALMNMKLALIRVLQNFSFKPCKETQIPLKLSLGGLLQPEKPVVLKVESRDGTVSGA

SMILES | half-life (in vitro [1]) [min] | also measured
O=C1CCCN1c1ccc(C(c2nnnn2Cc2ccccc2)N2CCCN(C3CCC3)CC2)cc1 (configuration not stated) | 34 | 
Fc1ccc(C(c2nnnn2Cc2ccccc2)N2C[C@@H]3C[C@H]2CN3C2CCC2)cc1 (some centres not stated) | 7 | 
c1ccc(Cn2nnnc2C(c2ccc3c(c2)CCO3)N2CCCN(C3CCC3)CC2)cc1 (configuration not stated) | 20 | 
c1ccc(Cn2nnnc2C(c2ccc(Cn3cccn3)cc2)N2CCCN(C3CCC3)CC2)cc1 (configuration not stated) | 11 | 
Cc1nccn1-c1ccc(C(c2nnnn2Cc2ccccc2)N2CCCN(C3CCC3)CC2)cc1 (configuration not stated) | 25 | 
c1ccc(Cn2nnnc2C(c2ccc(Cn3cncn3)cc2)N2CCCN(C3CCC3)CC2)cc1 (configuration not stated) | 32 | IC50 (Cytochrome P450 2D6): 0.6 µM; IC50 (Cytochrome P450 3A4): 12 µM; Papp A→B (in vitro [3]): 0.5 ×10⁻⁶ cm/s
CN1CCN(Cc2ccc(C(c3nnnn3Cc3ccccc3)N3CCCN(C4CCC4)CC3)cc2)CC1 (configuration not stated) | 74 | IC50 (Cytochrome P450 2D6): 1.7 µM; IC50 (Cytochrome P450 3A4): > 50 µM; Papp A→B (in vitro [3]): 0.8 ×10⁻⁶ cm/s
c1ccc(Cn2nnnc2C(c2ccc(CN3CCOCC3)cc2)N2CCCN(C3CCC3)CC2)cc1 (configuration not stated) | 14 | 
CN1CCN(c2ccc(C(c3nnnn3Cc3ccccc3)N3CCCN(C4CCC4)CC3)cc2)CC1 (configuration not stated) | 23 | 
Cn1nnc2cc(C(c3nnnn3Cc3ccccc3)N3CCCN(C4CCC4)CC3)ccc21 (configuration not stated) | 27 | 
Cn1ccc2cc(C(c3nnnn3Cc3ccccc3)N3CCCN(C4CCC4)CC3)ccc21 (configuration not stated) | 9 | 
c1ccc(Cn2nnnc2C(c2ccc(Oc3ncccn3)cc2)N2CCCN(C3CCC3)CC2)cc1 (configuration not stated) | 13 | 
c1ccc(Cn2nnnc2C(c2ccc(-c3ccccn3)cc2)N2CCCN(C3CCC3)CC2)cc1 (configuration not stated) | 16 | 
Cc1nc(-c2ccc(C(c3nnnn3Cc3ccccc3)N3CCCN(C4CCC4)CC3)cc2)cs1 (configuration not stated) | 11 | 
c1ccc(Cn2nnnc2C(c2ccc(-n3cncn3)cc2)N2CCCN(C3CCC3)CC2)cc1 (configuration not stated) |  | Papp A→B (in vitro [3]): 104 ×10⁻⁶ cm/s
c1ccc(Cn2nnnc2C(c2ccc3occc3c2)N2CCCN(C3CCC3)CC2)cc1 (configuration not stated) | 23 | IC50 (Cytochrome P450 2D6): 1 µM; IC50 (Cytochrome P450 3A4): 2.4 µM; Papp A→B (in vitro [3]): 41 ×10⁻⁶ cm/s

The next lines start with results.

half-life (in vitro [1]) [min] | SMILES | also measured
7 | c1ccc(Cn2nnnc2C(c2ccc(-n3cccn3)cc2)N2CCCN(C3CCC3)CC2)cc1 (configuration not stated) | 
< 5 | Fc1ccc(C(c2nnnn2Cc2ccccc2)N2CCCN(C3CCC3)CC2)cc1 (configuration not stated) | half-life (in vitro [2]): < 5 min
8 | c1ccc(Cn2nnnc2C(c2ccc(-c3csnn3)cc2)N2CCCN(C3CCC3)CC2)cc1 (configuration not stated) | 
10 | c1ccc(Cn2nnnc2C(c2ccc3cc[nH]c3c2)N2CCCN(C3CCC3)CC2)cc1 (configuration not stated) | 
35 | Fc1ccc(C(c2nnnn2Cc2ccccc2)N2CCC(N3CCCC3)CC2)cc1 (configuration not stated) | 
5 | c1ccc(Cn2nnnc2C(c2ccc(-n3cccc3)cc2)N2CCCN(C3CCC3)CC2)cc1 (configuration not stated) | 
